According to patent US11624056B2, “Method for producing cartilage cells induced to be differentiated from stem cells” (YiPCELL Inc., priority 2017, dated 2023):

How the values were obtained:
Type in all cases: cell-based, human
heavy OG cells [1] = assay: Chondrocyte markers in chondrogenic pellet differentiated in IGF2 inhibitor-treated medium; details: 2 mM chromeceptin, treatment after aggregation compared with before aggregation
Method: First, among the OG cells obtained in the step iii) of [Example 12], the heavy cells were cultured for 3 days while treating the medium with chromeceptin at a concentration of 2 mM, in the course of inducing differentiation into a chondrogenic pellet according to the step iv). Experimental groups were divided into two groups, that is, the experimental group (before aggregation) in which differentiation into chondrocytes had been induced by performing treatment with chromeceptin from the beginning of formation of a chondrogenic pellet, and the experimental group (after aggregation) in which differentiation into chondrocytes had been induced by performing treatment with chromeceptin from 7 days after induction of formation of a chondrogenic pellet. The differentiated chondrogenic pellets were respectively obtained therefrom. Then, mRNA was extracted from each of the obtained chondrogenic pellets, and the expression levels of COL2A1, SOX9, COL1A1 and COL10A1 were checked.

heavy OG cells [2] = assay: Proliferation of heavy OG cells cultured in IGF2 inhibitor-treated medium
Method: First, among the OG cells obtained in the step iii) of [Example 12], the heavy cells were cultured for 3 days while treating the medium with chromeceptin at a concentration of 2 nM to 2 μM, in the course of inducing differentiation into a chondrogenic pellet according to the step iv). Then, morphology of the cells was observed over the treatment time, and the number of the proliferated cells was counted.

heavy OG cells [3] = assay: Chondrogenic differentiation markers of heavy OG cells cultured in IGF2 inhibitor-treated medium
Text: Accordingly, heavy OG cells were induced to differentiate into a chondrogenic pellet while performing treatment with chromeceptin under the conditions of Example <16-1>, during which the OG cells were obtained, and mRNA was extracted therefrom and used to synthesize cDNA. Using the synthesized cDNA as a template, expression levels of SOX9, COL2A1, COL10A1, and IGF2 were quantitatively analyzed.

SMILES: CN(C)c1ccc2c(c1)OC(N)=C(C#N)C2c1cccc(C(F)(F)F)c1 (stereo not drawn) [chromeceptin]
- expression level of SOX9 in chondrogenic pellet (heavy OG cells [1]): significantly increased
- decrease of the number of OG cells (heavy OG cells [2]; 2 μM chromeceptin, after 72 hours, compared with untreated control): ≥ 3 times
- degree of proliferation of the cells (heavy OG cells [2]; chromeceptin 2 nM to 2 μM, 3 days): decreases with increased treatment concentration
- expression level of SOX9 (heavy OG cells [3]; 2 μM chromeceptin, compared with untreated control (Normal Ctrl)): remarkably increases
- expression level of IGF2 in the OG cells (heavy OG cells [3]; chromeceptin 2 nM to 2 μM): decreases with increased treatment concentration
- expression level of SOX9 (heavy OG cells [3]; chromeceptin 2 nM to 2 μM): significantly increases with increased treatment concentration
